Format in all cases: cell-based
One assay deals with T1, human EDG-2 (Homo sapiens, UniProt Q92633).
T1 construct: expressed in transfected cells; host or cells: Chinese hamster ovary (CHO) cells
Nature of the assay: Evaluation of EDG-2 antagonistic activity by monitoring the change of intracellular calcium ion concentration. The conditions noted are these: CHO cells overexpressing human EDG-2; inhibition of intracellular calcium increase by LPA (100 nM); Fura2. Here is the method:
Chinese hamster ovary (CHO) cells which overexpressed human EDG-2 gene were cultured in Ham's F12 medium (GIBCO BRL) containing 10% FBS (fetal bovine serum), penicillin/streptomycin and blasticidin (5 μg/ml). Thus cultured cells were incubated in Fura2 (5 μM)-AM solution [Ham's F12 medium containing FBS (10%), HEPES buffer (20 mM, pH 7.4) and probenecid (2.5 mM)]. Next, it was washed with Hanks solution containing HEPES buffer (20 mM, pH 7.4) and probenecid (2.5 mM) once, and immersed into the Hanks solution. Plates were set in fluorescent drug screening system and intracellular calcium ion concentration was measured for 30 seconds with no stimulation. Five minutes after adding thereto a compound to be tested (final concentration: 1 nM to 10 μM, in dimethylsulfoxide (DMSO) solution), the increase of intracellular calcium ion concentrations before and after the addition of LPA (excitation wave length: […]; fluorescent wave length: 500 nm) were measured every 3 seconds. 1-oleoyl (18:1)-LPA (Sigma) or 1-linolenoyl (18:3)-LPA was used as LPA. 1-linolenoyl (18:3)-LPA was synthesized and purified by either of the following two methods. […]

For assay [1], the system named is human prostate stroma cells. Nature of the assay: Inhibition by an EDG-2 antagonist of LPA-dependent proliferation of human prostate stroma cells (BrdU uptake). The settings on record: LPA 1 μM; test compound 1 nM to 10 μM; 24 hours; FIG. 2-4. Here is the method: To an MEM-α medium containing 10% FBS (fetal bovine serum), gentamicin (50 μg/ml), amphortercin B (50 ng/mL) and human bFGF and human insulin)(GIBCO Inc.) was added PrSC 5685 in a concentration of 1×10^4 cells/well in a 96-well plate and the mixture was cultured for 24 hours. Afterwards, it was washed with Hanks solution twice and the medium was exchanged with a serum-free medium (MEM-α containing gentamicin (50 μg/ml) and amphotercin B (50 ng/ml)) and cultured for another 24 hours. Thereto was added LPA (final concentration: 1 nM-10 μM) and at the same time was added BrdU and the mixture was cultured for 24 hours. The same amount of physiological saline was added in place of LPA as a control.
Uptaking of BrdU was measured by using cell proliferation ELISA kit (Amersham Inc.). Specifically, the cells were treated with BrdU and the cultured serum was discarded and to each well was added a cell anchorage/DNA denaturation solution (150 μl) and the mixture was allowed to stand for 30 minutes. The cell anchorage/DNA denaturation solution was removed and to the mixture was added Blocking buffer (150 μl) and the mixture was allowed to stand for another 30 minutes. Next the Blocking buffer was removed and thereto was added anti-BrdU antibody solution (100 μL) labeled with peroxidase and the mixture was allowed to stand for 30 minutes. Next the antibody solution was removed and the mixture was washed with Wash buffer (PBS(−); 150 μl) three times, moisture was removed enough by tapping and thereto was added a solution of a reaction substance (3,3′,5,5′,-tetramethylbenzidine, TMB 15% solution in DMSO; 100 μL). Thereto was added 2N solution of sulfuric acid (25 μL) and the absorbance was measured at 450 nm by microplate reader SPECTRAMAXPRO.
Human-prostate stroma cells were cultured by the method described in example 2, just before adding LPA the test compound (final concentration: 1 nM to 10 μM) were added. […] After adding LPA was added BrdU and it was cultured for another 24 hours and the uptaking activity of BrdU was measured.

The subject of assay [2] is mouse precursor fat cells (3T3-L1). Briefly: Inhibition by an EDG-2 antagonist of LPA-dependent proliferation of mouse precursor fat cells (BrdU uptake). The settings on record: compound 0.001 μM-10 μM, FIG. 9-10. The method, then:
Proliferating activity of mouse precursor fat cells by LPA was measured by BrdU uptaking activity of the cells (3T3-L1). In a medium containing serum (DMEM/10% FBS (50 μg/mL); gentamicin (50 ng/mL); amphotericin B) the cells were suspended and the suspension was sowed in a concentration of 1×10^4 cells/well in a 96-well plate and it was cultured for 24 hours, and then it was washed with Hanks solution (150 μL) twice and the medium was exchanged with serum-free medium (DMEM (50 μg/mL); gentamicin (50 ng/mL); amphotericin B) and it was cultured for another 24 hours. Thereto was added the compound (b) or compound (c) in a final concentration of 0.001 μM-10 μM and 20 hours later thereto was added BrdU and 24 hours later, the uptaking of BrdU was measured.

Assay [3] has as its system human synovial cells (HFLS). Nature of the assay: Inhibition by an EDG-2 antagonist of LPA-dependent proliferation of human synovial cells (BrdU uptake). The settings on record: LPA 3 μM, compound 0.001 μM-10 μM, FIG. 11-12. Here is the method: Proliferating activity of human synovial cells by LPA was measured by BrdU uptaking activity of the cells (HFLS CELL APPLICATION Inc.). In a medium containing serum (Synoviocyte Basal Medium/Synoviocyte Growth Supplement) the cells were suspended and they were sowed in a collagen-coated 96-well plate in a concentration of 1×10^4 cells/well and 24 hours after it was washed with Hanks solution (150 μl) twice and the medium was exchanged with serum-free medium (Synoviocyte Basal Medium) in a volume of 100 μL/well and it was cultured for 24 hours. The compound (b) or compound (c) (each in a concentration of 0.001 μM-10 μM) was simultaneously added with LPA (in a concentration of 3 μM) and 18 hours after, thereto was added BrdU and the uptaking of BrdU was measured.

Assay [4] deals with human airway smooth muscle cells. Briefly: Inhibition by an EDG-2 antagonist of LPA-dependent proliferation of human airway smooth muscle cells (BrdU uptake). The settings on record: LPA 3 μM; test compound 1 nM-10 μM; 6 hours; FIG. 6-7. The method, then:
BSMC was sowed to an MEM-α medium (GIBCO) containing 10% FBS (fetal bovine serum), gentamicin (50 μg/ml), amfortercin B (50 ng/ml), human bFGF and human insulin in a concentration of 1×10^4 cells/well in a 96-well plate and the mixture was cultured for 24 hours. Afterwards, it was washed with Hanks solution twice, and the medium was exchanged with a serum-free medium (an MEM-α containing gentamicin (50 μg/ml) and amphortecin B (50 ng/ml)) and the mixture was cultured for another 24 hours. Thereto was added LPA (final concentration: 3 nM-10 μM) and simultaneously was added BrdU and the mixture was cultured for another 6 hours. The same amount of physiological saline was added as a control in place of LPA.
Uptaking of BrdU was measured by using cell proliferation ELISA kit (Amersham Inc.). Specifically, the cells were treated with BrdU and the cultured serum was discarded and to each well was added a cell anchorage/DNA denaturation solution (150 μl) and the mixture was allowed to stand for 30 minutes. […] Thereto was added 2N solution of sulfuric acid (25 μL) and the absorbance was measured at 450 nm by microplate reader SPECTRAMAXPRO.
By the method shown in example 4 BSMC was cultured and the test compound (final concentration: 1 nM-10 μM) was added just before adding LPA. […] After adding LPA, BrdU was added and it was cultured for 6 hours and the uptaking activity of BrdU was measured.

pIC50: −log10 of the molar value. Entries after “also recorded” stand apart in the source; their conditions may differ.

T1 sequence (Q92633 whole entry): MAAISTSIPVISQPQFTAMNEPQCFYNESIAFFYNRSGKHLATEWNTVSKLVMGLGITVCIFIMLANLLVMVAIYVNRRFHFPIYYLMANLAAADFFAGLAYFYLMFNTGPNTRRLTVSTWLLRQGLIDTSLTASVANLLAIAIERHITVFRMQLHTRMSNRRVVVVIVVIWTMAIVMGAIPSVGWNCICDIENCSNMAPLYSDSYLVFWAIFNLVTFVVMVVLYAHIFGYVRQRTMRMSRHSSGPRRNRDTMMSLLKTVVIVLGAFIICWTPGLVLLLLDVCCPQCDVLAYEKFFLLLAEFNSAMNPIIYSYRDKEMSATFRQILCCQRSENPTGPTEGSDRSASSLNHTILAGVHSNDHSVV

Turning to `COc1cc(C(=O)N(CCCc2ccccc2)Cc2ccc(-c3ccccc3CC(=O)O)cc2)cc(OC)c1OC` [compound (c), (4′-{[(3-phenylpropyl)(3,4,5-trimethoxybenzoyl)amino]methyl}-2-biphenylyl)acetic acid], the pIC50 at human EDG-2 was 6.72. Further, in assay [1], the “inhibition of proliferation of human prostate stroma cells by LPA stimulation (BrdU uptaking activity)” value is listed as “suppresses the proliferation effect of normal human prostate stroma cells by LPA, depending on the concentration”. Besides, the “inhibition of proliferation of mouse precursor fat cells by LPA stimulation (BrdU uptaking activity)” value in assay [2] was “inhibits the proliferation effect of normal human precursor fat cells induced by LPA depending on the concentration; also recorded: inhibited the proliferation of mouse precursor fat cells by LPA stimulation depending on the concentration”. Besides, in assay [3], the “inhibition of proliferation of human synovial cells by stimulation of LPA (BrdU uptaking activity)” value (“inhibition … of LPA (BrdU uptaking activity)” for short) is listed as “inhibits the proliferation effect of normal human synovial membrane depending on the concentration”.

`COc1ccc(OC)c(CCN(CCC(=O)O)C(=O)c2ccccc2-c2ccccc2C(=O)NCc2cccnc2)c1.Cl` [compound (a), 3-(N-((2-(2-((pyridin-3-ylmethylamino)carbonyl)phenyl)phenyl)carbonyl)-N-(2-(2,5-dimethoxyphenyl)ethyl)amino)propanoic acid hydrochloride]: the “inhibition of proliferation of human prostate stroma cells by LPA stimulation (BrdU uptaking activity)” value in assay [1] is “suppresses the proliferation effect of normal human prostate stroma cells by LPA, depending on the concentration”. For the same molecule, the “inhibition of proliferation of human airway smooth muscle cells by LPA stimulation (BrdU uptaking activity)” value in assay [4] is “suppresses the proliferation effect of normal human airway smooth muscle cells by LPA, depending on the concentration”. The “inhibition … of LPA (BrdU uptaking activity)” value in assay [3] is listed as “inhibited the proliferation of human synovial cells by stimulation of LPA”.

Regarding `COC(=O)CCSCc1ccc(-c2onc(C)c2NC(=O)OC(C)c2ccccc2Cl)cc1` (stereo not drawn) [compound (b), methyl 3-({4-[4-({[1-(2-chlorophenyl)ethoxy]carbonyl}amino)-3-methyl-5-isoxazolyl]benzyl}sulfanyl)propanoate, reference compound], at human EDG-2, the pIC50 is 5.82. In addition, in assay [1], the “inhibition of proliferation of human prostate stroma cells by LPA stimulation (BrdU uptaking activity)” value is “suppresses the proliferation effect of normal human prostate stroma cells by LPA, depending on the concentration”. Also, in assay [4], the “inhibition of proliferation of human airway smooth muscle cells by LPA stimulation (BrdU uptaking activity)” value is “inhibits the proliferation effect of normal human airway smooth muscle cells induced by LPA depending on the concentration”. In assay [2], the “inhibition of proliferation of mouse precursor fat cells by LPA stimulation (BrdU uptaking activity)” value is reported as “inhibits the proliferation effect of normal human precursor fat cells induced by LPA depending on the concentration; also recorded: inhibited the proliferation of mouse precursor fat cells by LPA stimulation depending on the concentration”. In addition, the “inhibition … of LPA (BrdU uptaking activity)” value in assay [3] was “inhibits the proliferation effect of normal human precursor fat cells depending on the concentration; also recorded: inhibited the proliferation of human synovial cells by stimulation of LPA”.

The record behind these values is US7300917B2, “Remedy for chronic disease” (Ono Pharmaceuticals Co., Ltd., priority 2002, dated 2007).
